Source: ChEMBL document CHEMBL4373655, “Aminopyrimidine-galactose hybrids are highly selective galectin-3 inhibitors” (Medchemcomm, 2019)

Tests used:
[1] = Solubility of the compound in DMSO up to 900 uM; assay type: physicochemical
[2] = Solubility of the compound in DMSO at >[…] uM; assay type: physicochemical

solubility [1] | solubility [2] | Structure (SMILES)
Soluble | Insoluble | CO[C@@H]1O[C@H](CO)[C@H](O)[C@H](OCc2cc(-c3cccc(F)c3)nc(N)n2)[C@H]1O
Soluble | Insoluble | CO[C@@H]1O[C@H](CO)[C@H](O)[C@H](OCc2cc(-c3cccc(-c4ccccc4)c3)nc(N)n2)[C@H]1O
Soluble | Insoluble | CO[C@@H]1O[C@H](CO)[C@H](O)[C@H](OCc2cc(-c3ccccc3F)nc(N)n2)[C@H]1O
Soluble | Insoluble | CO[C@@H]1O[C@H](CO)[C@H](O)[C@H](OCc2cc(-c3cccc(C)c3)nc(N)n2)[C@H]1O
Soluble | Insoluble | CO[C@@H]1O[C@H](CO)[C@H](O)[C@H](OCc2cc(-c3ccc(C)cc3)nc(N)n2)[C@H]1O
Soluble | Insoluble | CO[C@@H]1O[C@H](CO)[C@H](O)[C@H](OCc2cc(-c3ccc(F)cc3)nc(N)n2)[C@H]1O
Soluble | Insoluble | CO[C@@H]1O[C@H](CO)[C@H](O)[C@H](OCc2cc(-c3ccc(Br)cc3)nc(N)n2)[C@H]1O
Soluble | Insoluble | CO[C@@H]1O[C@H](CO)[C@H](O)[C@H](OCc2cc(-c3ccc(-c4ccccc4)cc3)nc(N)n2)[C@H]1O
Soluble | Insoluble | CO[C@@H]1O[C@H](CO)[C@H](O)[C@H](OCc2cc(-c3ccc4ccccc4c3)nc(N)n2)[C@H]1O
Soluble | Insoluble | CO[C@@H]1O[C@H](CO)[C@H](O)[C@H](OCc2cc(-c3cccc4ccccc34)nc(N)n2)[C@H]1O
Soluble | Insoluble | CO[C@@H]1O[C@H](CO)[C@H](O)[C@H](OCc2cc(-c3ccc(C(C)(C)C)cc3)nc(N)n2)[C@H]1O
Soluble | Insoluble | CO[C@@H]1O[C@H](CO)[C@H](O)[C@H](OCc2cc(-c3ccc(Cl)cc3)nc(N)n2)[C@H]1O
Soluble | Insoluble | CO[C@@H]1O[C@H](CO)[C@H](O)[C@H](OCc2cc(-c3cccc(Cl)c3)nc(N)n2)[C@H]1O
Soluble | Insoluble | CO[C@@H]1O[C@H](CO)[C@H](O)[C@H](OCc2cc(-c3ccccc3)nc(N)n2)[C@H]1O
